Assay results published in US9440950B2, “Arginine methyltransferase inhibitors and uses thereof” (Epizyme, Inc., priority 2013, dated 2016).
pIC50: −log10 of the molar value.

Biological target: T1, Human CARM1 (PRMT4) (Homo sapiens, UniProt Q86X55)
T1 construct: Flag-CARM1-His; made in house; host or cells: HEK 293F cells (BacMam virus, pFastBacMam)
T1 sequence (Q86X55 1-585 isoform Q86X55-1): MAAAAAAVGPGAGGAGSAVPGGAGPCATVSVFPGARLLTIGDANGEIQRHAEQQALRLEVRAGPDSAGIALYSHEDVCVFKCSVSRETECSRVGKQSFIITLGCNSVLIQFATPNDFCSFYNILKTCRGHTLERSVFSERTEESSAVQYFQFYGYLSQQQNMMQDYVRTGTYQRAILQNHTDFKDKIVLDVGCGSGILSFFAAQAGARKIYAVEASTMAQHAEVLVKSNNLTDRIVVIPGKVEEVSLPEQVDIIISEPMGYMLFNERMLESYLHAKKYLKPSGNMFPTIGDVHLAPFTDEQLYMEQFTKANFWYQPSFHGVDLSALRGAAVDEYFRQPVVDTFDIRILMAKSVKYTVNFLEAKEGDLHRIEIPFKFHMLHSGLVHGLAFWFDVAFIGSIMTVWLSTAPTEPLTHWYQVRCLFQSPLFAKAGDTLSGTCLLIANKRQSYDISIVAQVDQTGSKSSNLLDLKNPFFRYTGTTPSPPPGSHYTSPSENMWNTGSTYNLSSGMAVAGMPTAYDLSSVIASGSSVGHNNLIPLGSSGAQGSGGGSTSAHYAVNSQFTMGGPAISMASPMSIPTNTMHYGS
Experiment: CARM1 Biochemical Assay
Conditions: peptide substrate, 3H-SAM Flashplate assay
From the text: S-adenosylmethionine (SAM), S-adenosylhomocysteine (SAH), bicine, Tween20, dimethylsulfoxide (DMSO), bovine skin gelatin (BSG), sodium butyrate and Tris(2-carboxyethyl)phosphine hydrochloride solution (TCEP) were purchased from Sigma-Aldrich at the highest level of purity possible. ^3H-SAM was purchase from American Radiolabeled Chemicals with a specific activity of 80 Ci/mmol. 384-well streptavidin Flashplates were purchased from PerkinElmer.
Peptide representative of human histone H3 residues 16-30 was synthesized with an N-terminal linker-affinity tag motif and a C-terminal amide cap by 21st Century Biochemicals. The peptide was purified by high-performance liquid chromatography (HPLC) to greater than 95% purity and confirmed by liquid chromatography mass spectrometry (LC-MS). The sequence was Biot-Ahx-[…]-amide and contained a monomethylated arginine at position 26 (SEQ ID NO.:14).
Human CARM1 (PRMT4) (NM_199141.1) transcript clone was amplified from an HEK 293 cDNA library, incorporating a flanking 5′ sequence encoding a FLAG tag ([…]) (SEQ ID NO.:6) fused directly to Ala 2 of CARM1 and 3′ sequence encoding a hexa His sequence ([…]) (SEQ ID NO.:15) fused directly to Ser 608. The gene sequence encoding isoform1 containing a deletion of amino acids 539-561 was amplified subsequently and subcloned into pFastBacMam (Viva Biotech).
Recombinant baculovirus were generated according to Bac-to-Bac kit instructions (Life Technologies). […] Infections were carried out at 37° C. for 48 hours, harvested by centrifugation, and stored at −80° C. for purification.
Column was washed with 500 mM NaCl in buffer A and Flag-CARM1-His was eluted with 200 ug/ml FLAG peptide in buffer A. Pooled fractions were dialyzed in 20 mM Tris, 150 mM NaCl, 5% glycerol and 1 mM DTT, pH 7.8. The purity of recovered protein was 94.
General Procedure for CARM1 Enzyme Assays on Peptide Substrates.
The assays were all performed in a buffer consisting of 20 mM Bicine (pH=7.6), 1 mM TCEP, 0.005% BSG, and 0.002% Tween 20, prepared on the day of use. Compounds in 100% DMSO (1 ul) were spotted into a polypropylene 384-well V-bottom plates (Greiner) using a Platemate Plus outfitted with a 384-channel head (Thermo Scientific). DMSO (1 ul) was added to Columns 11, 12, 23, 24, rows A-H for the maximum signal control and 1 ul of SAH, a known product and inhibitor of CARM1, was added to columns 11, 12, 23, 24, rows I-P for the minimum signal control. A cocktail (40 ul) containing the CARM1 enzyme was added by Multidrop Combi (Thermo-Fisher). The compounds were allowed to incubate with CARM1 for 30 min at room temperature, then a cocktail (10 ul) containing ^3H-SAM and peptide was added to initiate the reaction (final volume=51 ul). The final concentrations of the components were as follows: CARM1 was 0.25 nM, ^3H-SAM was 30 nM, peptide was 250 nM, SAH in the minimum signal control wells was 1 mM, and the DMSO concentration was 2%. The assays were stopped by the addition of non-radiolabeled SAM (10 ul) to a final concentration of 300 uM, which dilutes the ^3H-SAM to a level where its incorporation into the peptide substrate is no longer detectable. 50 ul of the reaction in the 384-well polypropylene plate was then transferred to a 384-well Flashplate and the biotinylated peptides were allowed to bind to the streptavidin surface for at least 1 hour before being washed once with 0.1% Tween20 in a Biotek ELx405 plate washer. The plates were then read in a PerkinElmer TopCount plate reader to measure the quantity of ^3H-labeled peptide bound to the Flashplate surface, measured as disintegrations per minute (dpm) or alternatively, referred to as counts per minute (cpm).
Where dpm=disintegrations per minute, cmpd=signal in assay well, and min and max are the respective minimum and maximum signal controls.
Where top and bottom are the normally allowed to float, but may be fixed at 100 or 0 respectively in a 3-parameter fit. […]

pIC50 | SMILES
≤ 5.00 | CNCCN(C)Cc1c[nH]nc1-c1ccc(O)nc1 [Compound 2]
5.00 to 5.52 | CNCCN(C)Cc1c[nH]nc1-c1ccc(N)nc1 [Compound 3]
5.52 to 6.00 | CN(CCN)Cc1c[nH]nc1-c1cncc(F)c1 [Compound 7]
5.00 to 5.52 | COc1ccc(-c2n[nH]cc2CN(C)CCN)cn1 [Compound 5]
≤ 5.00 | CN(CCN)Cc1c[nH]nc1-c1cncc(S(C)(=O)=O)c1 [Compound 4]
≤ 5.00 | Cc1cncc(-c2n[nH]cc2CN(C)CCN)c1 [Compound 6]
5.00 to 5.52 | CN(CCN)Cc1c[nH]nc1-c1ccncc1 [Compound 9]
6.00 to 7.00 | Cc1cc(-c2n[nH]cc2CN(C)CCN)cnc1Cl [Compound 10]
5.00 to 5.52 | CN(CCN)Cc1c[nH]nc1-c1cccnc1 [Compound 8]
5.52 to 6.00 | CNCCN(C)Cc1c[nH]nc1-c1cccnc1 [Compound 1]
